Where two headings read alike, the source gives them in different places. Where no end group is shown, it is not given here. [ ]: non-standard residue; d: D form.
Assays:
M. scrofulaceum = assay: MIC against M. scrofulaceum; format: cell-based, Mycobacterium scrofulaceum; conditions: M. scrofulaceum (ATCC 19981); CAAT media
Mycobacterium species = format: cell-based
M. tuberculosis = format: cell-based, Mycobacterium tuberculosis
P. apista = format: cell-based, Pandoraea apista
Procedure: (§1) The MBEC (after 2-hour treatments) was determined as described in Jones and Wozniak, PsI Produced by Mucoid Pseudomonas aeruginosa Contributes to the Establishment of Biofilms and Immune Evasion, Am. Soc. Microbiol. 2017, 8(3):e00864-17. Meropenem and tobramycin were included as controls and were both poorly active, with MBEC90 values of >256 μg/mL (data not shown).

A. xylosoxidans = test system: A. xylosoxidans
Procedure: (§2) Biofilms are then washed and treated with e.g., a 2-fold dilution series of the lysin in TSBg at e.g., 37° C. for 24 hours. After treatment, wells are washed, air-dried at e.g., 37° C. and stained with e.g., 0.05% crystal violet for 10 minutes.
(§3) The antibiofilm activity of GN370, AM1, AM2, and AM3 was evaluated against various Gram-negative bacteria prevalent in cystic fibrosis patients, including P. aeruginosa, S. maltophilia, and A. xylosoxidans.
(§4) The MBEC (after 2-hour treatments) was determined as described in Jones and Wozniak, PsI Produced by Mucoid Pseudomonas aeruginosa Contributes to the Establishment of Biofilms and Immune Evasion, Am. […] Microbiol.

S. maltophilia [1] = test system: S. maltophilia
Procedure: as §2, §3, §4

B. multivorans = test system: B. multivorans
Procedure: as §2, §3, §4

M. kansasii = assay: MIC against M. kansasii; format: cell-based, Mycobacterium kansasii; conditions: M. kansasi (ATCC 12478); CAAT media
P. aeruginosa [2] = assay: Time-kill assay in cystic fibrosis patient sputum, P. aeruginosa; format: cell-based, Pseudomonas aeruginosa
Source text: Sputum from 5 cystic fibrosis patients was pooled. The resulting mixture was not filtered, as it was very dense and not amenable to sterilization by filtration. Sputum is known to be a complex mixture of DNA, carbohydrates, and lipids ([…], 2016). As used herein, the term “sputum” refers to the mucus present in the respiratory tract of an animal, such as a human. Sputum may increase in thickness due to the irritation or infection, including bacterial infection, and in some instances, may be expelled by the animal while coughing. In certain instances, cystic fibrosis may be characterized by the presence of a thick, sticky mucus or sputum present in the lungs of cystic fibrosis patients. The activity of GN370, AM1, AM2, AM3, and meropenem was determined in the sputum using a time-kill assay format as disclosed in Zhang et al., Antimicrobial peptide therapeutics for cystic fibrosis, Antimicrobial Agents Chemother. 2005; 49(7):2921-2927. […] Untreated controls were included in addition to pretreatment plating (t=0) for a baseline CFU determination. Activity was also determined in the absence of sputum for comparison to activity observed in the presence of sputum.

P. aeruginosa [3] = assay: Serial passage resistance development study, P. aeruginosa; format: cell-based, Pseudomonas aeruginosa; conditions: P. aeruginosa strain CFS 1292, Day 28
P. aeruginosa [4] = test system: P. aeruginosa
A. dolens = format: cell-based, Achromobacter dolens
Procedure: as §1

B. cenocepacia = format: cell-based, Burkholderia cenocepacia
Procedure: as §1

Achromobacter spp. = assay: MIC by broth microdilution against Achromobacter spp.; format: cell-based; conditions: Tables 8-12
Procedure: MIC values were determined using a modification of the standard broth microdilution reference method defined by the Clinical and Laboratory Standards Institute (CLSI), CLSL. 2015. Methods for Dilution Antimicrobial Susceptibility Tests for Bacteria That Grow Aerobically; Approved Standard-10th Edition. Clinical and Laboratory Standards Institute, Wayne, PA. The modification was based on the replacement of Mueller Hinton Broth with either CAA media (with and without NaCl) or CAA supplemented with 2.5% human serum. MIC is the minimum concentration of peptide sufficient to suppress at least 80% of the bacterial growth compared to control.
The MICs for were determined as described below using the broth microdilution method for meropenem, GN370, AM1, AM2, and AM3. The results are shown below in Tables 8-12.

S. maltophilia [5] = assay: Serial passage resistance development study, S. maltophilia; format: cell-based, Stenotrophomonas maltophilia; conditions: S. maltophilia, day 28, triplicate

**Q.** Which MIC (M. scrofulaceum) does the source give for “M[dR]L[dK]MA[dR][dR][dR]Y[dR]LP[dR][dR][dR]S[dR][dR]LFS[dR]TAL[dR]MHP[dR]N[dR]L[dR][dR]IM[dR]GGI[dR]F [AM2]” here?
**A.** 16 µg/mL

**Q.** What about the “activity (MIC) against Mycobacterium species” value (Mycobacterium species) of the same substance?
**A.** highest activity

**Q.** What about the MIC (M. tuberculosis; M. tuberculosis (ATCC 35817), (ADC, T) media) of the same substance?
**A.** 8 µg/mL

**Q.** And the MIC (M. tuberculosis; M. tuberculosis strain TN8109_LB (MDR), 7H9 broth, 20 days)?
**A.** 2 µg/mL

**Q.** What about the MIC (M. tuberculosis; M. tuberculosis strain TN8562_M33 (susc), 7H9 broth, 20 days) of the same substance?
**A.** 2 µg/mL

**Q.** And the MIC (M. tuberculosis; M. tuberculosis strain TN10525_LL (MDR), 7H9 broth, 20 days)?
**A.** 8 µg/mL

**Q.** What about the MIC (M. tuberculosis; M. tuberculosis strain TN10571_KY (MDR), 7H9 broth, 20 days) of the same substance?
**A.** 4 µg/mL

**Q.** And the MIC (M. tuberculosis; M. tuberculosis strain TN12657_KQ15 (IS), 7H9 broth, 20 days)?
**A.** 4 µg/mL

**Q.** And the MIC (M. tuberculosis; M. tuberculosis strain TN13923_HD17 (susc), 7H9 broth, 20 days)?
**A.** 8 µg/mL

**Q.** What about the MIC (M. tuberculosis; M. tuberculosis strain TN18349_W738 (susc), 7H9 broth, 20 days) of the same substance?
**A.** 2 µg/mL

**Q.** And the MIC (M. tuberculosis; M. tuberculosis strain TN34503_001 (susc), 7H9 broth, 20 days)?
**A.** 8 µg/mL

**Q.** And the MBEC50 (P. apista)?
**A.** 8 µg/mL

**Q.** And the MBEC90 (P. apista)?
**A.** 16 µg/mL

**Q.** What about the MBEC50 (A. xylosoxidans) of the same substance?
**A.** 2 µg/mL

**Q.** What about the MBEC90 (A. xylosoxidans) of the same substance?
**A.** 8 µg/mL

**Q.** And the “MBEC Range” value (A. xylosoxidans)?
**A.** 0.125 to 32 µg/mL

**Q.** And the MBEC50 (S. maltophilia [1])?
**A.** 1 µg/mL

**Q.** And the MBEC90 (S. maltophilia [1])?
**A.** 2 µg/mL

**Q.** What about the “MBEC Range” value (S. maltophilia [1]) of the same substance?
**A.** 0.125 to 4 µg/mL

**Q.** And the “antibiofilm activity (MBEC) against S. maltophilia” value (S. maltophilia [1]; 2-hour treatments)?
**A.** highly active

**Q.** What about the MBEC50 (B. multivorans) of the same substance?
**A.** 2 µg/mL

**Q.** What about the MBEC90 (B. multivorans) of the same substance?
**A.** 16 µg/mL

**Q.** What about the “MBEC Range” value (B. multivorans) of the same substance?
**A.** 1 to 16 µg/mL

**Q.** And the MIC (M. kansasii)?
**A.** 2 µg/mL

**Q.** And the “effect of sputum on antibacterial activity” value (P. aeruginosa [2]; 10% CF sputum vs no sputum)?
**A.** not inhibited

**Q.** What about the “Log10 CFU/mL of sputum” value (P. aeruginosa [2]; absence of sputum, 1 hr) of the same substance?
**A.** 2.3 Log10 CFU/mL of sputum

**Q.** And the “Log10 CFU/mL of sputum” value (P. aeruginosa [2]; absence of sputum, 3 hr)?
**A.** 2.3 Log10 CFU/mL of sputum

**Q.** What about the “Log10 CFU/mL of sputum” value (P. aeruginosa [2]; absence of sputum, 24 hr) of the same substance?
**A.** 2.3 Log10 CFU/mL of sputum

**Q.** What about the “Log10 CFU/mL of sputum” value (P. aeruginosa [2]; presence of 10% sputum, 1 hr) of the same substance?
**A.** 2.3 Log10 CFU/mL of sputum

**Q.** What about the “Log10 CFU/mL of sputum” value (P. aeruginosa [2]; presence of 10% sputum, 3 hr) of the same substance?
**A.** 2.3 Log10 CFU/mL of sputum

**Q.** And the “Log10 CFU/mL of sputum” value (P. aeruginosa [2]; presence of 10% sputum, 24 hr)?
**A.** 2.3 Log10 CFU/mL of sputum

**Q.** What about the “killing by 1 hour, maintained by 24 hours” value (P. aeruginosa [2]; time-kill) of the same substance?
**A.** complete killing

**Q.** And the “change in MIC over serial passage” value (P. aeruginosa [3])?
**A.** no significant changes

**Q.** And the MIC50 (P. aeruginosa [4]; P. aeruginosa isolates)?
**A.** 0.06 µg/mL

**Q.** What about the MIC90 (P. aeruginosa [4]; P. aeruginosa isolates) of the same substance?
**A.** 0.25 µg/mL

**Q.** And the “MIC Range” value (P. aeruginosa [4]; P. aeruginosa isolates)?
**A.** 0.016-0.5^

**Q.** What about the MIC (P. aeruginosa [4]; P. aeruginosa test organism of the sputum time-kill assay) of the same substance?
**A.** (MIC = 0.25)

**Q.** What about the “activity (MIC) against P. aeruginosa isolates” value (P. aeruginosa [4]; all tested isolates, Tables 8-12) of the same substance?
**A.** highly active

**Q.** And the MBEC50 (A. dolens)?
**A.** 4 µg/mL

**Q.** What about the MBEC90 (A. dolens) of the same substance?
**A.** 8 µg/mL

**Q.** What about the “MBEC Range” value (A. dolens) of the same substance?
**A.** 1 to 8 µg/mL

**Q.** And the MBEC50 (B. cenocepacia)?
**A.** 16 µg/mL

**Q.** And the MBEC90 (B. cenocepacia)?
**A.** 32 µg/mL

**Q.** What about the “MBEC Range” value (B. cenocepacia) of the same substance?
**A.** 2 to 32 µg/mL

**Q.** And the “activity (MIC) against Achromobacter spp.” value (Achromobacter spp.)?
**A.** variably active

**Q.** What about the “change in MIC over serial passage” value (S. maltophilia [5]) of the same substance?
**A.** no increase in MIC
